Results: patent US20250353891A1 (MEDIMMUNE LIMITED, priority 2022, published 2025)
Starred links: 1 amine or outer side, 2 acyl side, 3 side chain; linkers in the order of their positions; H or OH if unused. Non-standard residues stand in square brackets, D forms with d. Residues, ends and D or L forms follow the SMILES beside them. Groups on a side chain read outwards from the residue. *: point of attachment. C20 diacid = O=C(O)CCCCCCCCCCCCCCCCCCC(=O)*; γGlu = O=C(O)[C@H](CCC(=O)[*:2])N[*:1]; αMeF = C[C@](N)(Cc1ccccc1)C(=O)O; AEEA = NCCOCCOCC(=O)O; Aib = CC(C)(N)C(=O)O

How the values were obtained:
[1] = biological target: human GLP-1 receptor (hGLP-1R) (Homo sapiens, UniProt P43220); assay: cAMP production (HTRF) in CHO cells expressing hGLP-1R; format: cell-based; design: expressed in transfected cells; conditions: for EC50: Table 7, peptides modified at position 20, cAMP in CHO hGLP-1R cells, geometric mean, read-out: hGLP-1R EC50; for % Relative Potency Ratio: Table 7, % GLP-1R activity relative to GLP-1 / % GlucR activity relative to glucagon
Sequence of human GLP-1 receptor (hGLP-1R) (P43220 24-463): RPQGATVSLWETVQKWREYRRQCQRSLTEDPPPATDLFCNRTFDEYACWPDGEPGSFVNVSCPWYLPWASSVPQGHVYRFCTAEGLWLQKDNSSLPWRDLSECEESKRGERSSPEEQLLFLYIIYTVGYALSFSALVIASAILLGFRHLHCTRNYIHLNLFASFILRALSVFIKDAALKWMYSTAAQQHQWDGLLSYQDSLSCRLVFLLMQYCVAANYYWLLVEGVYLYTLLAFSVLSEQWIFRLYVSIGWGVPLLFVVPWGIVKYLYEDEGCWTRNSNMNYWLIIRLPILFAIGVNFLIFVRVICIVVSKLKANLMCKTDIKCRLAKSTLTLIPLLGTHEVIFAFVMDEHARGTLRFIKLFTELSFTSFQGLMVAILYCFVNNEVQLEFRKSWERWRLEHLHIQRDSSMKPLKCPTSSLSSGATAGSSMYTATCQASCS
Method in brief: (§1)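 Potency values represent EC50 from 4-parameter logistic curves of HTRF % Delta F signal. Receptor-expressing CHO cells (hGCGR 2×10^5 cells/mL, hGLP-1R 1×10^5 cells/mL) were exposed for 30 min at room temperature before two-step cAMP detection.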

[2] = biological target: human glucagon receptor (hGCGR) (Homo sapiens, UniProt P47871); assay: cAMP production (HTRF) in CHO cells expressing hGCGR; format: cell-based; design: expressed in transfected cells; conditions: Table 7, peptides modified at position 20; cAMP in CHO hGCGR cells; geometric mean; read-out: hGluc-R EC50
Sequence of human glucagon receptor (hGCGR) (P47871 26-477): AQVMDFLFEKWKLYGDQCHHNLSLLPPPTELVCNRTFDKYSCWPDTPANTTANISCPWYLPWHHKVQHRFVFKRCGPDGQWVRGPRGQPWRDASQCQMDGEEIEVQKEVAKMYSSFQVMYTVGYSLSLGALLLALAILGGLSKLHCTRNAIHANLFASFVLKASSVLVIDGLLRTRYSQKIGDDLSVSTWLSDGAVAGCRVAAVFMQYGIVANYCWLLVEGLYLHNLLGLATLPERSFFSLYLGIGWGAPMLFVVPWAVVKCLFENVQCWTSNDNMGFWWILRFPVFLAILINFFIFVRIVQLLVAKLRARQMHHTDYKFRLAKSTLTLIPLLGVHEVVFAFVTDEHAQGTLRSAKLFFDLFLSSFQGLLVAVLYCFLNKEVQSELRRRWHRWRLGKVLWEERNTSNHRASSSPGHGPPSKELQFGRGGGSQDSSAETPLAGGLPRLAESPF
Method in brief: as §1

Row | Compound | EC50 [1] | % Relative Potency Ratio [1] | EC50 [2]
1 | CC[C@H](C)[C@H](NC(=O)[C@H](Cc1c[nH]c2ccccc12)NC(=O)[C@H](CCC(N)=O)NC(=O)[C@@H](NC(=O)[C@](C)(Cc1ccccc1)NC(=O)[C@H](CC(=O)O)NC(=O)[C@H](CCCCNC(=O)COCCOCCNC(=O)COCCOCCNC(=O)CC[C@H](NC(=O)CCCCCCCCCCCCCCCCCCC(=O)O)C(=O)O)NC(=O)[C@H](C)NC(=O)[C@H](C)NC(=O)[C@H](CCCNC(=N)N)NC(=O)[C@H](CO)NC(=O)[C@H](CC(=O)O)NC(=O)[C@H](CC(C)C)NC(=O)[C@](C)(Cc1ccccc1)NC(=O)[C@H](CCCCN)NC(=O)[C@H](CO)NC(=O)[C@@H](NC(=O)[C@H](CC(=O)O)NC(=O)[C@H](CO)NC(=O)[C@@H](NC(=O)[C@](C)(Cc1ccccc1)NC(=O)[C@H](CO)NC(=O)CNC(=O)[C@H](Cc1c[nH]cn1)NC(=O)C(C)(C)NC(=O)[C@@H](N)Cc1c[nH]cn1)[C@@H](C)O)C(C)C)C(C)C)C(=O)N[C@@H](C)C(=O)N[C@@H](CC(N)=O)C(=O)N[C@H](C(N)=O)[C@@H](C)O [Peptide 215] (H-H[Aib]HGS[αMeF]TSDVSK[αMeF]LDSRAAK([AEEA-AEEA-γGlu-C20 diacid])D[αMeF]VQWIANT-NH2; N-terminus assumed) | 7.62 nM | 0.7 | 2.61 nM
2 | CC[C@H](C)[C@H](NC(=O)[C@H](Cc1c[nH]c2ccccc12)NC(=O)[C@H](CCC(=O)O)NC(=O)[C@@H](NC(=O)[C@](C)(Cc1ccccc1)NC(=O)[C@H](CC(=O)O)NC(=O)[C@H](CCCCNC(=O)COCCOCCNC(=O)COCCOCCNC(=O)CC[C@H](NC(=O)CCCCCCCCCCCCCCCCCCC(=O)O)C(=O)O)NC(=O)[C@H](C)NC(=O)[C@H](C)NC(=O)[C@H](CCCNC(=N)N)NC(=O)[C@H](CO)NC(=O)[C@H](CC(=O)O)NC(=O)[C@H](CC(C)C)NC(=O)[C@](C)(Cc1ccccc1)NC(=O)[C@H](CCCCN)NC(=O)[C@H](CO)NC(=O)[C@@H](NC(=O)[C@H](CC(=O)O)NC(=O)[C@H](CO)NC(=O)[C@@H](NC(=O)[C@](C)(Cc1ccccc1)NC(=O)[C@H](CO)NC(=O)CNC(=O)[C@H](Cc1c[nH]cn1)NC(=O)C(C)(C)NC(=O)[C@@H](N)Cc1c[nH]cn1)[C@@H](C)O)C(C)C)C(C)C)C(=O)N[C@@H](C)C(=O)N[C@@H](CC(N)=O)C(=O)N[C@H](C(N)=O)[C@@H](C)O [Peptide 216] (H-H[Aib]HGS[αMeF]TSDVSK[αMeF]LDSRAAK([AEEA-AEEA-γGlu-C20 diacid])D[αMeF]VEWIANT-NH2) | 18.1 nM | 0.6 | 5.67 nM
3 | CC[C@H](C)[C@H](NC(=O)[C@H](Cc1c[nH]c2ccccc12)NC(=O)[C@H](CCC(N)=O)NC(=O)[C@@H](NC(=O)[C@H](Cc1ccccc1)NC(=O)[C@H](CC(=O)O)NC(=O)[C@H](CCCCNC(=O)COCCOCCNC(=O)COCCOCCNC(=O)CC[C@H](NC(=O)CC[C@H](NC(=O)CCCCCCCCCCCCCCCCCCC(=O)O)C(=O)O)C(=O)O)NC(=O)[C@H](C)NC(=O)C(C)(C)NC(=O)[C@H](CCCNC(=N)N)NC(=O)[C@H](CO)NC(=O)[C@H](CC(=O)O)NC(=O)[C@H](CC(C)C)NC(=O)[C@](C)(Cc1ccccc1)NC(=O)[C@H](CCCCN)NC(=O)[C@H](CO)NC(=O)[C@@H](NC(=O)[C@H](CC(=O)O)NC(=O)[C@H](CO)NC(=O)[C@@H](NC(=O)[C@](C)(Cc1ccccc1)NC(=O)[C@H](CO)NC(=O)CNC(=O)[C@H](Cc1c[nH]cn1)NC(=O)C(C)(C)NC(=O)[C@@H](N)Cc1c[nH]cn1)[C@@H](C)O)C(C)C)C(C)C)C(=O)N[C@@H](C)C(=O)N[C@@H](CC(N)=O)C(=O)N[C@H](C(N)=O)[C@@H](C)O [Peptide 217] (H-H[Aib]HGS[αMeF]TSDVSK[αMeF]LDSR[Aib]AK([AEEA-AEEA-γGlu-γGlu-C20 diacid])DFVQWIANT-NH2) | 0.264 nM | 0.9 | 0.127 nM
4 | CC[C@H](C)[C@H](NC(=O)[C@H](Cc1c[nH]c2ccccc12)NC(=O)[C@H](CCC(N)=O)NC(=O)[C@@H](NC(=O)[C@H](Cc1ccccc1)NC(=O)[C@H](CC(=O)O)NC(=O)[C@H](CCCCNC(=O)COCCOCCNC(=O)COCCOCCNC(=O)CC[C@H](NC(=O)CC[C@H](NC(=O)CCCCCCCCCCCCCCCCCCC(=O)O)C(=O)O)C(=O)O)NC(=O)[C@H](C)NC(=O)[C@H](C)NC(=O)[C@H](CCCNC(=N)N)NC(=O)[C@H](CO)NC(=O)[C@H](CC(=O)O)NC(=O)[C@H](CC(C)C)NC(=O)[C@](C)(Cc1ccccc1)NC(=O)[C@H](CCCCN)NC(=O)[C@H](CO)NC(=O)[C@@H](NC(=O)[C@H](CC(=O)O)NC(=O)[C@H](CO)NC(=O)[C@@H](NC(=O)[C@](C)(Cc1ccccc1)NC(=O)[C@H](CO)NC(=O)CNC(=O)[C@H](Cc1c[nH]cn1)NC(=O)C(C)(C)NC(=O)[C@@H](N)Cc1c[nH]cn1)[C@@H](C)O)C(C)C)C(C)C)C(=O)N[C@@H](C)C(=O)N[C@@H](CC(N)=O)C(=O)N[C@H](C(=O)NCC(N)=O)[C@@H](C)O [Peptide 218] (H-H[Aib]HGS[αMeF]TSDVSK[αMeF]LDSRAAK([AEEA-AEEA-γGlu-γGlu-C20 diacid])DFVQWIANTG-NH2) | 0.139 nM | 6.0 | 0.423 nM
5 | CC[C@H](C)[C@H](NC(=O)[C@H](Cc1c[nH]c2ccccc12)NC(=O)[C@H](CCC(N)=O)NC(=O)[C@@H](NC(=O)[C@H](Cc1ccccc1)NC(=O)[C@H](CC(=O)O)NC(=O)[C@H](CCCCNC(=O)COCCOCCNC(=O)COCCOCCNC(=O)CC[C@H](NC(=O)CC[C@H](NC(=O)CCCCCCCCCCCCCCCCCCC(=O)O)C(=O)O)C(=O)O)NC(=O)[C@H](C)NC(=O)[C@H](C)NC(=O)[C@H](CCCNC(=N)N)NC(=O)[C@H](CO)NC(=O)[C@H](CC(=O)O)NC(=O)[C@H](CC(C)C)NC(=O)[C@](C)(Cc1ccccc1)NC(=O)[C@H](CCCCN)NC(=O)[C@H](CO)NC(=O)[C@@H](NC(=O)[C@H](CC(=O)O)NC(=O)[C@H](CO)NC(=O)[C@@H](NC(=O)[C@](C)(Cc1ccccc1)NC(=O)[C@H](CO)NC(=O)CNC(=O)[C@H](Cc1c[nH]cn1)NC(=O)C(C)(C)NC(=O)[C@@H](N)Cc1c[nH]cn1)[C@@H](C)O)C(C)C)C(C)C)C(=O)N[C@@H](C)C(=O)N[C@@H](CC(N)=O)C(=O)N[C@H](C(=O)NCC(=O)NCC(N)=O)[C@@H](C)O [Peptide 219] (H-H[Aib]HGS[αMeF]TSDVSK[αMeF]LDSRAAK([AEEA-AEEA-γGlu-γGlu-C20 diacid])DFVQWIANTGG-NH2; N-terminus assumed) | 0.0945 nM | 6.2 | 0.298 nM
6 | CC[C@H](C)[C@H](NC(=O)C(C)(C)NC(=O)[C@H](CCC(N)=O)NC(=O)[C@@H](NC(=O)[C@H](Cc1ccccc1)NC(=O)[C@H](CC(=O)O)NC(=O)[C@H](CCCCNC(=O)COCCOCCNC(=O)COCCOCCNC(=O)CC[C@H](NC(=O)CC[C@H](NC(=O)CCCCCCCCCCCCCCCCCCC(=O)O)C(=O)O)C(=O)O)NC(=O)[C@H](C)NC(=O)C(C)(C)NC(=O)[C@H](CCCNC(=N)N)NC(=O)[C@H](CO)NC(=O)[C@H](CC(=O)O)NC(=O)[C@H](CC(C)C)NC(=O)[C@](C)(Cc1ccccc1)NC(=O)[C@H](CCCCN)NC(=O)[C@H](CO)NC(=O)[C@@H](NC(=O)[C@H](CC(=O)O)NC(=O)[C@H](CO)NC(=O)[C@@H](NC(=O)[C@](C)(Cc1ccccc1)NC(=O)[C@H](CO)NC(=O)CNC(=O)[C@H](Cc1c[nH]cn1)NC(=O)C(C)(C)NC(=O)[C@@H](N)Cc1c[nH]cn1)[C@@H](C)O)C(C)C)C(C)C)C(=O)N[C@@H](C)C(=O)N[C@@H](CC(N)=O)C(=O)N[C@H](C(N)=O)[C@@H](C)O [Peptide 220] (H-H[Aib]HGS[αMeF]TSDVSK[αMeF]LDSR[Aib]AK([AEEA-AEEA-γGlu-γGlu-C20 diacid])DFVQ[Aib]IANT-NH2) | 0.24 nM | 3.3 | 0.405 nM
